The values below come from patent publication US8258114B2, “Modulation of glucose-6-phosphatase translocase expression” (Isis Pharmaceuticals, Inc., priority 2004, dated 2012).

In one data set the test system is db/db mice. Description: Fed and fasted plasma glucose in db/db mice (Example 10). The data set is classed as in vivo, mouse. The note with it: 25 mg/kg s.c. twice weekly; for fasted plasma glucose: week 3, overnight fast, saline 343. As for the experimental part: Seven-week old male C57B1/6J-Lepr db/db mice (Jackson Laboratory, Bar Harbor, Me.) were fed a diet with a fat content of about 14% and were subcutaneously injected with one or more of the oligomeric compounds of the invention or a control compound at a dose of 25 mg/kg two times per week. Glucose-6-phosphatase translocase antisense oligonucleotides used were ISIS 148985 (SEQ ID NO: 118) and ISIS 149008 (SEQ ID NO: 141). ISIS 116847 (SEQ ID NO: 143), targeted to mouse PTEN, was used as a positive control. The scrambled control oligonucleotide ISIS 141923 ([…], incorporated herein as SEQ ID NO: 144) served as a negative control along with saline-injected animals. ISIS 141923 and ISIS 116847 are chimeric oligonucleotides (“gapmers”) 20 nucleotides in length, composed of a central “gap” region consisting of 10 2′-deoxynucleotides, which is flanked on both sides (5′ and 3′) by five-nucleotide “wings”. The wings are composed of 2′-O-(2-methoxyethyl) nucleotides, also known as 2′-MOE nucleotides. The internucleoside (backbone) linkages are phosphorothioate throughout the oligonucleotide. All cytidine residues are 5-methylcytidines.
The effects of target inhibition on glucose metabolism were evaluated in the db/db mice treated with the oligomeric compounds of the invention. For seven animals per treatment group, plasma glucose (fed) was measured prior to the start of the treatment (week 0) and during weeks 2 and 4 of treatment. Fasted glucose measurements were made during week three, after animals were fasted overnight (about 15 hours). Data are expressed as the averages per treatment group.

For data set [1] the following is noted: mouse, in vivo, sc, 25 mg/kg. As for the experimental part:
Seven-week old male C57B1/6J-Lep ob/ob mice (Jackson Laboratory, Bar Harbor, Me.) were fed a diet with a fat content of about 22% and were subcutaneously injected with oligonucleotides at a dose of 25 mg/kg two times per week. A total of eight doses were administered. Glucose-6-phosphatase translocase antisense oligonucleotides used were ISIS 148985 (SEQ ID NO: 118) and ISIS 149008 (SEQ ID NO: 141). ISIS 116847 ([…]; incorporated herein as SEQ ID NO: 143), targeted to mouse PTEN, was used as a positive control. Saline-injected animals served as negative controls. Animals were sacrificed 48 hours after the last dose of oligonucleotide was administered, and liver triglycerides, liver glycogen, and target reduction in liver were measured.
Hepatic steatosis, or buildup of lipids in the liver, was assessed by measuring the liver triglyceride content. Tissue triglycerides were measured with a Triglyceride GPO assay from Roche Diagnostics (Indianapolis, Ind.). Data are presented as averages from 5 animals per treatment group. Triglycerides were approximately 178 mg/g for saline treated mice, 162 mg/g for ISIS 149008-treated mice, 168 mg/g for ISIS 148985-treated mice, and 187 mg/g for ISIS 116847 (PTEN)-treated mice. Thus liver triglycerides were not increased in antisense-treated animals.
Tissue glycogen was measured using the Glucose Trinder Reagent (Sigma-Aldrich, St. Louis, Mo.). Glycogen levels of mice treated with saline alone were approximately 31 mg/g of tissue. Levels in mice treated with the positive control antisense compound ISIS 116847, targeted to PTEN, had levels of approximately 25 mg/g. Mice treated with ISIS 149008 or 148985, the antisense inhibitors of glucose-6-phosphatase translocase, had glycogen levels of approximately 31 mg/g and 30 mg/g, respectively.

For data set [2], the system named is glucose-6-phosphatase translocase mRNA. Description: Target mRNA reduction in liver of ob/ob mice. The following applies: 25 mg/kg s.c. twice weekly, eight doses. The data set is classed as in vivo, mouse. As for the experimental part:
Seven-week old male C57B1/6J-Lep ob/ob mice (Jackson Laboratory, Bar Harbor, Me.) were fed a diet with a fat content of about 22% and were subcutaneously injected with oligonucleotides at a dose of 25 mg/kg two times per week. A total of eight doses were administered. Glucose-6-phosphatase translocase antisense oligonucleotides used were ISIS 148985 (SEQ ID NO: 118) and ISIS 149008 (SEQ ID NO: 141). […]; incorporated herein as SEQ ID NO: 143), targeted to mouse PTEN, was used as a positive control. Saline-injected animals served as negative controls. […] Glucose-6-phosphatase translocase mRNA levels in ob/ob mouse livers were measured at the end of the study using RIBOGREENTM RNA quantification reagent (Molecular Probes, Inc. Eugene, Oreg.) as taught in previous examples above.

A short description of data set [3]: Liver triglycerides and glycogen stores in db/db mice (Table 8). The data set is classed as in vivo, mouse. As for the experimental part:
Seven-week old male C57B1/6J-Lepr db/db mice (Jackson Laboratory, Bar Harbor, Me.) were fed a diet with a fat content of about 14% (Formulab Diet 5008) and were subcutaneously injected with ISIS 116847 (SEQ ID NO: 143), ISIS 141923 (SEQ ID NO: 144), or ISIS 148985 (SEQ ID NO: 118), an antisense inhibitor of glucose-6-phosphatase translocase, […] […] Saline-injected animals served as controls. 48 hours after the eighth and final dose was administered, mice were sacrificed and target levels were evaluated in liver. RNA isolation and target mRNA expression level quantitation were performed as described by other examples herein.
Patients with the human glycogen storage disease type 1b have mutations in the glucose-6-phosphatase translocase gene. Because one manifestation of these mutations is a defect in hepatic glycogen deposition, the db/db mice were further evaluated at the end of the treatment period for liver glycogen stores. Tissue glycogen levels were measured using the Glucose Trinder Reagent (Sigma-Aldrich, St. Louis, Mo.). Tissue triglyceride levels were measured using a Triglyceride GPO Assay from Roche Diagnostics (Indianapolis, Ind.). Liver triglyceride levels were used to assess hepatic steatosis, or accumulation of lipids in the liver. Hepatic steatosis was also assessed by routine histological analysis of frozen liver tissue sections stained with oil red 0 stain, which is commonly used to visualize lipid deposits, and counterstained with hematoxylin and eosin, to visualize nuclei and cytoplasm, respectively. Data are presented in Table 8 as the averages from 5 animals per treatment group.

Setting [4] is: 25 mg/kg twice weekly 4 weeks (25 mg/mL [sic]), saline 47.
[5] abbreviates: 25 mg/kg twice weekly 4 weeks (25 mg/mL [sic]), saline 25.

Where two headings read alike, the source gives them in different places.

Turning to “GCTCCATAGCGAGGACTCGA (chemistry not given here) [ISIS 148985]”, the fed plasma glucose entry with db/db mice (week 0, saline 270) is “approximately 267 mg/dL”; in the data set with db/db mice (week 2, saline 534) it was around 512 mg/dL; in the data set on db/db mice (week 4, saline 627), around 552 mg/dL. The fasted plasma glucose result with db/db mice was “approximately 288 mg/dL”. The Liver Triglycerides in data set [1] was around 168 mg/g. The sequence further had a Liver glycogen levels in data set [1] of around 30 mg/g. In addition, the “Glucose-6-phosphatase translocase mRNA levels in liver, reduction compared to saline” value in data set [2] is on record as “approximately 52%”. In data set [3] (setting [4]), the “Liver Glycogen” value worked out at 47 mg/g.
For the sequence “CTGCTAGCCTCTGGATTTGA (chemistry not given here) [ISIS 116847, positive control oligonucleotide targeted to mouse PTEN, reference compound]”, the fed plasma glucose entry in the data set with db/db mice (week 0, saline 270) is reported as “approximately 267 mg/dL”; in the data set on db/db mice (week 2, saline 534), around 360 mg/dL; with db/db mice (week 4, saline 627), around 334 mg/dL. In addition, the fasted plasma glucose entry in the data set with db/db mice is listed as “approximately 241 mg/dL”. Further, the values for the Liver Triglycerides in data set [1] and in data set [3] (setting [5]) were around 187 mg/g and 67 mg/g, respectively. Also, the Liver glycogen levels result in data set [1] was “approximately 25 mg/g”. For the same sequence, the “Glucose-6-phosphatase translocase mRNA levels in liver, reduction compared to saline” value in data set [2] was “approximately 36%”. The “Liver Glycogen” value in data set [3] (setting [4]) turned out to be 39 mg/g.
With “CCTTCCCTGAAGGTTCCTCC (chemistry not given here) [ISIS 141923, scrambled control oligonucleotide, negative control, reference compound]”, the fed plasma glucose entry in the data set on db/db mice (week 0, saline 270) was “approximately 272 mg/dL”; with db/db mice (week 2, saline 534), around 538 mg/dL; in the data set on db/db mice (week 4, saline 627), around 563 mg/dL. Besides, the fasted plasma glucose result in the data set with db/db mice is “approximately 287 mg/dL”. The “Liver Triglycerides” value in data set [3] (setting [5]) worked out at 30 mg/g. Besides, in data set [3] (setting [4]), the “Liver Glycogen” value is on record as 43 mg/g.
As to “TATACAAGTCGGTTTGCCCT (chemistry not given here) [ISIS 149008]”, the fed plasma glucose entry is “approximately 272 mg/dL” with db/db mice (week 0, saline 270); around 390 mg/dL with db/db mice (week 2, saline 534); around 347 mg/dL with db/db mice (week 4, saline 627). Also, the fasted plasma glucose entry with db/db mice was “approximately 241 mg/dL”. The Liver Triglycerides in data set [1] is given as around 162 mg/g; in data set [3] (setting [5]) it was 58 mg/g; in data set [3] (dose 12.5 mg/mL [sic]) it was 41 mg/g; in data set [3] (dose printed 6 mg/mL) it was 33 mg/g. Also, the Liver glycogen levels entry in data set [1] was “approximately 31 mg/g”. The “Glucose-6-phosphatase translocase mRNA levels in liver, reduction compared to saline” value in data set [2] was “approximately 87%”. In addition, the “Liver Glycogen” value in data set [3] (setting [4]) is 45 mg/g; in data set [3] (dose 12.5 mg/mL [sic]), 45 mg/g; in data set [3] (dose printed 6 mg/mL), 48 mg/g.
